Test results published in PMC12888861, “Antibacterial activity of enmetazobactam against Acinetobacter spp.: a molecular dissection of mechanism of action and resistance determinants” (Antimicrobial Agents and Chemotherapy, 2025).
Like-named read-outs stand apart in the source and are kept apart here.

How the values were obtained:
[1] = system: carbapenem-susceptible A. baumannii isolates (n = 54); test: MIC, broth microdilution (EUCAST), carbapenem-susceptible A. baumannii isolates; assay type: cell-based, Acinetobacter baumannii; settings: for MIC: in combinations ETZ fixed at 8 mg/L
Source text: The bacterial strains used in this study comprised 208 clinical isolates from the Spanish National Acinetobacter spp. 2020 Multicenter Collection, which was previously characterized in detail by our research group, including whole-genome sequencing, phylogenetics studies, clonal dynamics, and resistance mechanisms ([2], [29]). Additionally, a collection of A. baumannii ATCC 17978 transformants coding the blaOXA-23, blaOXA-24/40, blaOXA-51, blaOXA-58, blaOXA-143, and blaOXA-201 genes, previously constructed and described by our group ([30]), was used to determine the activity of enmetazobactam against strains carrying the main CHDLs of A. baumannii.
The antimicrobial susceptibility of the 208 Acinetobacter spp. isolates was assessed using the broth microdilution method, as described in the European Committee on Antimicrobial Susceptibility Testing (EUCAST) v.15 guidelines (http://www.eucast.org/clinical_breakpoints). […] MICs for enmetazobactam alone were assessed as well. […] Subsequently, MIC testing was also conducted with a collection of A. baumannii ATCC 17978 transformants expressing clinically relevant OXA-like carbapenemase genes.
The A. baumannii ATCC 19606 strain was used as the reference strain in all susceptibility experiments, in duplicate assays. Antibiotics were purchased from Sigma-Aldrich, except enmetazobactam and durlobactam, which were obtained from Advanz Pharma and MedChemExpress, respectively.

PBP1b = PBP1b (Acinetobacter baumannii, UniProt A0ABX6CHI7); test: PBP-binding assay, Bocillin FL competition, membrane preparations; settings: A. baumannii ATCC 19606, read-out: IC50 (binding affinity) PBP1b (converted)
Procedure: (§1) The possible involvement of A. baumannii PBPs as enmetazobactam targets was evaluated. […] The PBP-binding IC50 was determined in membrane preparations from three independent experiments, following previously described protocols ([13]).
(§2) Briefly, A. baumannii cultures were grown in Mueller-Hinton broth at 37°C with shaking at 180 rpm, and 400 mL were collected in late log phase (OD₆₀₀nm= 1), washed, and resuspended in 20 mM KH₂PO₄ and 140 mM NaCl (pH 7.5). After sonication, bacterial membranes were isolated by ultracentrifugation (150,000 g, 30 min). […] The Bocillin FL signal is inversely proportional to the binding capacity of the compounds tested to PBPs ([35]). The PBPs were separated by SDS-PAGE (Bio-Rad) and visualized with Odyssey M Imager (LI-COR). The IC₅₀ values were calculated using Empiria Studio software (LI-COR). The binding affinity was determined by comparing the change of the fluorescence in the presence or absence of the tested sulfones.

PBP2 = target: T1, PBP2 (Acinetobacter baumannii, UniProt D0C8Z9); test: as above; settings: membrane preparations, A. baumannii ATCC 19606, read-out: IC50 (binding affinity) PBP2 (converted)
T1 construct: endogenous in cells; host or cells: A. baumannii ATCC 19606 membrane fraction
Procedure: as §1, §2

PBP3 = PBP3 (Acinetobacter baumannii, UniProt A0ABX6CK25); test: as above
Procedure: as §1, §2

OXA-23 = target: T2, OXA-23 (Acinetobacter baumannii, UniProt Q9L4P2); test: OXA-23 inhibition assay (nitrocefin hydrolysis IC50); assay type: biochemical; settings: OXA-23; nitrocefin hydrolysis; 10 min preincubation at room temperature; read-out: IC50
T2 construct: GST (N); made in house; host or cells: Escherichia coli BL21
Procedure: The Michaelis-Menten constant (Km) was determined by fitting the data to the Michaelis-Menten equation, following established protocols ([38]). The kcat (hydrolysis rate constant of the β-lactamase) was obtained by linearization of the kinetic data ([39]). To assess the possible inhibitory capacity of enmetazobactam against the CHDLs of A. baumannii, specific OXA-23 inhibition kinetics assays were performed in a Nanoquant Infinite spectrophotometer (Tecan). […] Also, the dissociation constant (koff), which represents the rate at which the enzyme-inhibitor complex dissociates (i.e., the proportion of the enzyme-inhibitor complex that dissociates per unit of time), was determined through a jump-dilution assay that monitored OXA-23 activity recovery as the enzyme-inhibitor complex dissociated. OXA-23 (1 µM) was preincubated for 30 min at 37°C with excess of inhibitors (50× IC₅₀) to ensure full acyl-enzyme complex formation. Subsequently, the mixture was diluted 1:5,000 to allow gradual complex dissociation. […] Enzymatic activity, reflecting the progressive dissociation of the acyl-enzyme complex, was monitored spectrophotometrically at 490 nm for 8 h. The resulting progress curves were fitted using GraphPad Prism (GraphPad Software, MA, USA) to equation 1 to estimate koff, where V0 is the initial, inhibited enzyme velocity; Vs is the steady-state uninhibited enzyme velocity, and t is time.

[2] = Acinetobacter baumannii, carbapenem-susceptible A. baumannii isolates (n = 54), ETZ fixed 8 mg/L in combinations

T1 sequence (D0C8Z9 whole entry): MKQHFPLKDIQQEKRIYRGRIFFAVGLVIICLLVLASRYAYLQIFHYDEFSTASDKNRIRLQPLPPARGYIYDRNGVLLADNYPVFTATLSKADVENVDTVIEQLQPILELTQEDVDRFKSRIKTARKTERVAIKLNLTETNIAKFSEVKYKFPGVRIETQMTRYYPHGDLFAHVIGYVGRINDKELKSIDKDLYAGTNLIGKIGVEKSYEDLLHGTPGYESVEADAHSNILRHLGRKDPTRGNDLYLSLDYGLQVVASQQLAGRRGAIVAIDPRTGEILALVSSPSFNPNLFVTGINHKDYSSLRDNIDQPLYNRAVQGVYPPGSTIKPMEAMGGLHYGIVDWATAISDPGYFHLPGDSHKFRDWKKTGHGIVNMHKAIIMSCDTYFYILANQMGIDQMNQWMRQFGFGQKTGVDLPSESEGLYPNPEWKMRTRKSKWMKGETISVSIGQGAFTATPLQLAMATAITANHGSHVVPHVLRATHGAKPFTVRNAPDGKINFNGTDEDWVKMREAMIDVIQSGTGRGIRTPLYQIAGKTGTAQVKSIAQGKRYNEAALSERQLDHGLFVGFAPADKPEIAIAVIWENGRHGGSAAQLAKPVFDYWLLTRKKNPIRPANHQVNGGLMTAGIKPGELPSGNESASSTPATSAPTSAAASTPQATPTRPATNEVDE
Sequence of PBP3 (A0ABX6CK25 entry or part of it): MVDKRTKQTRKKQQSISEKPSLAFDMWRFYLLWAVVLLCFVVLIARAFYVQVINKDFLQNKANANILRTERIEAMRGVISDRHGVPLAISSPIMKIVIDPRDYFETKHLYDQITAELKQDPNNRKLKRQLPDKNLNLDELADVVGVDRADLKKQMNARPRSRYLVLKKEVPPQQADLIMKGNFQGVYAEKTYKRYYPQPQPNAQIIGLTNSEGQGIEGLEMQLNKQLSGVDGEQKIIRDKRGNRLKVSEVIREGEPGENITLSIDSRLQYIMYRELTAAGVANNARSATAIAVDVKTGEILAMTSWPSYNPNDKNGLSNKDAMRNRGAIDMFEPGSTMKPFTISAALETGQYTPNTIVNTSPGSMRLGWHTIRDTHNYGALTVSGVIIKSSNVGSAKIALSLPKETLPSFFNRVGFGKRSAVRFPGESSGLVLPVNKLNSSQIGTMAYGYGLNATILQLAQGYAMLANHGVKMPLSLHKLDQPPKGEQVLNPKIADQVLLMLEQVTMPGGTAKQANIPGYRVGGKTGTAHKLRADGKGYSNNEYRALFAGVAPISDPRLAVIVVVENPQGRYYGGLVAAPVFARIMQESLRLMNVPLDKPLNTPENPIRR
T2 sequence (Q9L4P2 18-273): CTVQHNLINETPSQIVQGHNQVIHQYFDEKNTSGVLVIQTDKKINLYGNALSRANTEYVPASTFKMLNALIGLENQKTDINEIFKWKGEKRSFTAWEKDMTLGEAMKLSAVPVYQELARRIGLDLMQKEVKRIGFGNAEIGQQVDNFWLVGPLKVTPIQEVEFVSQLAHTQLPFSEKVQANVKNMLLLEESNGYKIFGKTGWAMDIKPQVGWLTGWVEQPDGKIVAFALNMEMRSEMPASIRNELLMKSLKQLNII

Compound: C[n+]1ccn(C[C@@]2(C)[C@H](C(=O)[O-])N3C(=O)C[C@H]3S2(=O)=O)n1 [enmetazobactam]
- MIC ([1]; Acinetobacter baumannii, isolate Ab158, ST 2034, ADC-2, OXA-217): 2 µg/mL
- MIC ([1]; Acinetobacter baumannii, isolate Ab163, ST 132, ADC-2, OXA-120): 2 µg/mL
- MIC ([1]; Acinetobacter baumannii, isolate Ab167, ST 1623, ADC-like, OXA-345): 2 µg/mL
- MIC ([1]; Acinetobacter baumannii, isolate Ab168, ST 1470, ADC-75, OXA-402): 2 µg/mL
- MIC ([1]; Acinetobacter baumannii, isolate Ab170, ST 2110, ADC-4, OXA-338): 4 µg/mL
- MIC ([1]; Acinetobacter baumannii, isolate Ab172, ST 2185, ADC-5, OXA-217): 2 µg/mL
- MIC ([1]; Acinetobacter baumannii, isolate Ab185, ST 2, ADC-26, OXA-66): 4 µg/mL
- MIC ([1]; Acinetobacter baumannii, isolate Ab187, ST 105, ADC-2, OXA-430): 2 µg/mL
- MIC ([1]; Acinetobacter baumannii, isolate Ab188, ST 203, ADC-6, OXA-217, PDC-1): 4 µg/mL
- MIC ([1]; Acinetobacter baumannii, isolate Ab189, ST 1405, ADC-3, OXA-120): 2 µg/mL
- MIC ([1]; Acinetobacter baumannii, isolate Ab190, ST 2186, ADC-6, OXA-413): 2 µg/mL
- MIC ([1]; Acinetobacter baumannii, isolate Ab193, ST 164, ADC-6, OXA-91): 2 µg/mL
- MIC ([1]; Acinetobacter baumannii, isolate Ab195, ST 1, ADC-11, OXA-69): 2 µg/mL
- MIC ([1]; Acinetobacter baumannii, isolate Ab200, ST 1336, ADC-2, OXA-51): 2 µg/mL
- MIC ([1]; Acinetobacter baumannii, isolate Ab202, ST 1, ADC-11, OXA-69): 2 µg/mL
- MIC ([1]; Acinetobacter baumannii, isolate Ab203, ST 221, ADC-6, OXA-88): 2 µg/mL
- MIC ([1]; Acinetobacter baumannii, isolate Ab206, ST 2187, ADC-58, OXA-69): 2 µg/mL
- MIC ([1]; Acinetobacter baumannii, isolate Ab209): 1 µg/mL
- MIC ([1]; Acinetobacter baumannii, isolate Ab213): 2 µg/mL
- MIC ([1]; Acinetobacter baumannii, isolate Ab218): 2 µg/mL
- MIC ([1]; Acinetobacter baumannii, isolate Ab220): 1 µg/mL
- MIC50 [1, 2]: 2 µg/mL
- MIC90 [1, 2]: 4 µg/mL
- MIC distribution 0.25 ([1]; cumulative share of carbapenem-susceptible A. baumannii isolates (n = 54) at MIC 0.25 mg/L, ETZ fixed 8 mg/L in combinations): 0
- MIC distribution 0.5 ([1]; cumulative share of carbapenem-susceptible A. baumannii isolates (n = 54) at MIC 0.5 mg/L, ETZ fixed 8 mg/L in combinations): 0
- MIC distribution 1 ([1]; cumulative share of carbapenem-susceptible A. baumannii isolates (n = 54) at MIC 1 mg/L, ETZ fixed 8 mg/L in combinations): 3.7
- MIC distribution 2 ([1]; cumulative share of carbapenem-susceptible A. baumannii isolates (n = 54) at MIC 2 mg/L, ETZ fixed 8 mg/L in combinations): 51.9
- MIC distribution 4 ([1]; cumulative share of carbapenem-susceptible A. baumannii isolates (n = 54) at MIC 4 mg/L, ETZ fixed 8 mg/L in combinations): 96.3
- MIC distribution 8 ([1]; cumulative share of carbapenem-susceptible A. baumannii isolates (n = 54) at MIC 8 mg/L, ETZ fixed 8 mg/L in combinations): 100
- MIC distribution 16 ([1]; cumulative share of carbapenem-susceptible A. baumannii isolates (n = 54) at MIC 16 mg/L, ETZ fixed 8 mg/L in combinations): 100
- MIC distribution ≤0.06 ([1]; cumulative share of carbapenem-susceptible A. baumannii isolates (n = 54) at MIC ≤0.06 mg/L, ETZ fixed 8 mg/L in combinations): 0
- MIC distribution ≥32 ([1]; cumulative share of carbapenem-susceptible A. baumannii isolates (n = 54) at MIC ≥32 mg/L, ETZ fixed 8 mg/L in combinations): 100
- IC50 (PBP1b): > 204 µM
- IC50 (PBP2): 11.5 µM
- IC50 (PBP3; A. baumannii ATCC 19606, listed as Enmetazobactam, read-out: IC50 (binding affinity) PBP3 (converted)): 13.4 µM
- IC50 (PBP3; A. baumannii ATCC 19606, read-out: IC50 (binding affinity) PBP3 (converted)): 13.5 µM
- IC50 (OXA-23): 32.4 µM
